Assay results published in US20090280160A1, “PHENYLEPHRINE PHARMACEUTICAL FORMULATIONS AND COMPOSITIONS FOR TRANSMUCOSAL ABSORPTION” (Schering-Plough Healthcare Products, Inc., priority 2007, published 2009).
“Also recorded” adds a separate entry of the source.

Key:
α1b adrenoreceptor [1] = molecular target: T1, α1b adrenoreceptor (Homo sapiens, UniProt P35368); assay: Cellular calcium flux (FLIPR), α1b expressing CHO cells; format: cell-based; conditions: for increase in intracellular calcium, α1b calcium assay (in words): α1b expressing CHO cells
T1 construct: expressed in transfected cells
T1 sequence (P35368 1-520): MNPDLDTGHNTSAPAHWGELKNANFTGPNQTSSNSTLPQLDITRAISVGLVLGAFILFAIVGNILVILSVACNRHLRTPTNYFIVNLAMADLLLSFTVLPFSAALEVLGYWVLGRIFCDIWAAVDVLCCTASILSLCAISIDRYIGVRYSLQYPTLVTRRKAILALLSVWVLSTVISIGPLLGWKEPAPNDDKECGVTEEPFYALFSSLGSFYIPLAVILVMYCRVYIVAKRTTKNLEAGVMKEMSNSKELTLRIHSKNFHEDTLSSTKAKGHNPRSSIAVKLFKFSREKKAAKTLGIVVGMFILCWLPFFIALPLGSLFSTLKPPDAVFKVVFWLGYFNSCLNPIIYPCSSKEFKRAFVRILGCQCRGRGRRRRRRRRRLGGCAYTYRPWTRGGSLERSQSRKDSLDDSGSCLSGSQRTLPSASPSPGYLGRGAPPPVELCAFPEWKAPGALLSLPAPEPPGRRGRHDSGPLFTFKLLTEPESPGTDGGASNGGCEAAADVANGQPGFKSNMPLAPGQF
Protocol: (§1) The affinity and activity of phenylephrine metabolites were evaluated in human recombinant α1 and α2 adrenoreceptor binding and activity assays. […] Affinity of the metabolites was determined by receptor binding assays. Functional activity of the metabolites was assessed using an [^35S]-GTPγS binding exchange assay for the α2 receptor subtypes and a cell-based calcium flux response for the α1 receptor subtypes.
Intracellular calcium levels were measured using a fluorometric imaging plate reader (FLIPR). Cells expressing α1 adrenoreceptors were cultured overnight at 15,000 cells/well in 96 well black-wall clear bottom plates (Packard). Adherent cells were loaded for 1 hour at 37° C. using the FLIPR Calcium Plus Assay Kit (Molecular Probes, Eugene, Oreg.), which included 2.5 mM probenecid (Sigma). Compounds (at 10 mM in 100% DMSO) were diluted in diluting buffer (HBSS, 20 mM HEPES, 2.5 mM probenecid, 0.5% BSA, pH 7.4). A titration of norepinephrine was included in every experiment and norepinephrine (at 1 μM) was also used as a plate standard on each assay plate. Cells were maintained at 37° C. throughout all calcium measurements. Fluorescence data was collected at 1 second interval for 60 seconds, followed by collection at 2 second intervals for 30 seconds. Background fluorescence was quantitated in wells containing cells with no additions and was subtracted from all experimental samples. All conditions were done in quadruplicate. Non-linear regression analysis using GraphPad Prism was used to calculate EC50 values.
(§2) Each metabolite was evaluated in each assay in at least 2 independent experiments and a representative assay of each metabolite/assay combination is shown.

α1b adrenoreceptor [2] = molecular target: T1, α1b adrenoreceptor; assay: Competition binding, [3H]-prazosin, α1b CHO cell membranes
Protocol: as §1
(§3) Competition Binding Assays
(§4) Competition binding assays for the α2 adrenoreceptors were performed using 20 μg membrane protein per well in binding buffer (75 mM Tris-HCl pH 7.4, 12.5 mM MgCl2, […] EDTA, 0.2% bovine serum albumin). […] Binding was terminated by rapid filtration through GF/C unifilter plates, presoaked with 0.3% polyethylenimine, with five washes with 0.5 ml cold 50 mM Tris-HCl ph 7.4, using a Packard Filtermate Harvester. After drying, bound radioactivity was determined by liquid scintillation counting (Packard TopCount) with Microscint 20, 50 μl/well. Binding data were analyzed using GraphPad Prism.
as §2

α2b adrenoreceptor = molecular target: T2, α2b adrenoreceptor (Homo sapiens, UniProt P18089); assay: [35S]-GTPγS binding exchange, α2b CHO cell membranes; format: biochemical; conditions: for stimulation of [35S]-GTPγS binding, α2b (in words): CHO cell membranes
T2 construct: expressed in transfected cells; host or cells: CHO (Chinese hamster ovary) cells, membranes
T2 sequence (P18089 1-450): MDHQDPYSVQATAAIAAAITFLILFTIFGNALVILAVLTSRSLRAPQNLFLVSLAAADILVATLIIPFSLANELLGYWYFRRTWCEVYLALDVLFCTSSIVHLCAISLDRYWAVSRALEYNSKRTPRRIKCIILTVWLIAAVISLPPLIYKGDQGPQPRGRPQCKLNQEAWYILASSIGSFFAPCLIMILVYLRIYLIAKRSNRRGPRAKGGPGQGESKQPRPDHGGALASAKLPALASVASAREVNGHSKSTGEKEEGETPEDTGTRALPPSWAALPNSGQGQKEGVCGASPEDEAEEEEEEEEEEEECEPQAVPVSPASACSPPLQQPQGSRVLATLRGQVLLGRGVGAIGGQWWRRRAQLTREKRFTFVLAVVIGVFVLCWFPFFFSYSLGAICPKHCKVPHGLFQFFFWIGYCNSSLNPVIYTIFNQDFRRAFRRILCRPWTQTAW
Protocol: as §1
(§5) Assay buffer was 75 mM Tris-HCl pH 7.4, 12.5 mM MgCl2, 2 mM EDTA and 1 μM GDP. Plates were counted on a Packard TopCount. The percent increase over basal binding of [^35S]-GTPγS, a measure of efficacy, was calculated as follows: 100×[[mean total sample cpm−basal cpm]÷by basal cpm]. Basal cpm was defined as the mean cpm in the absence of agonist compound minus the mean non-specific binding cpm.
as §2

α2c adrenoreceptor [3] = molecular target: T3, α2c adrenoreceptor (Homo sapiens, UniProt P18825); assay: [35S]-GTPγS binding exchange, α2c CHO cell membranes; format: biochemical; conditions: for stimulation of [35S]-GTPγS binding, α2c (in words): CHO cell membranes
T3 construct: expressed in transfected cells; host or cells: CHO (Chinese hamster ovary) cells, membranes
T3 sequence (P18825 1-462): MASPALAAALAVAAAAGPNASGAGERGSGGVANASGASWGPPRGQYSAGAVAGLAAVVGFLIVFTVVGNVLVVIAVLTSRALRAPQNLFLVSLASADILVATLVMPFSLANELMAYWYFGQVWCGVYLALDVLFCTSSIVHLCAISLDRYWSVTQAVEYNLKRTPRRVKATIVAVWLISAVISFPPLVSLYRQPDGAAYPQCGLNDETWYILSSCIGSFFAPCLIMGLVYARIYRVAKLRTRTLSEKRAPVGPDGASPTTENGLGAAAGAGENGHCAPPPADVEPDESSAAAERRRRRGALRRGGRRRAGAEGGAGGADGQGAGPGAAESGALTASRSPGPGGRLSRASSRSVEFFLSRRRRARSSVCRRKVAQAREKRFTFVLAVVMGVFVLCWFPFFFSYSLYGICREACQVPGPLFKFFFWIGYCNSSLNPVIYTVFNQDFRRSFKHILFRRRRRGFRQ
Protocol: as §1, §5, §2

α2c adrenoreceptor [4] = molecular target: T3, α2c adrenoreceptor; assay: Competition binding, [3H]-UK14304, α2c CHO cell membranes; conditions: for inhibition of [3H]-UK14304 binding, α2c (in words): CHO cell membranes
Protocol: as §1, §3, §4, §2

[5] = oral, approximately 24 mg of PE, healthy volunteers; cited from earlier work
[6] = listed as PE glucuronide batch 4
[7] = highest concentration evaluated (10 μM)

## CNC[C@H](O)c1cccc(O[C@@H]2O[C@H](C(=O)O)[C@@H](O)[C@H](O)[C@H]2O)c1 [PE glucuronide, (R)-PE glucuronide]
α1b adrenoreceptor [1]; batch b4, approximately 0.28% PE
  fold less potent than PE in inducing a calcium increase, α1b cells: 300-450 fold
α1b adrenoreceptor [1]
  increase in intracellular calcium, α1b calcium assay (in words): consistent with level of contaminating phenylephrine; also recorded: pharmacologically inactive
α1b adrenoreceptor [1]; [6]
  increase in intracellular calcium, α1b calcium assay (in words): minimal activity
α1b adrenoreceptor [2]; CHO cell membranes
  inhibition of 3H-prazosin binding, α1b (in words): No appreciable binding; also recorded: no binding affinity; also recorded: pharmacologically inactive
α2b adrenoreceptor
  stimulation of [35S]-GTPγS binding, α2b (in words): pharmacologically inactive
α2b adrenoreceptor; listed as PE glucuronide b2
  stimulation of [35S]-GTPγS binding, α2b (in words): No stimulatory activity
α2c adrenoreceptor [3]
  stimulation of [35S]-GTPγS binding, α2c (in words): nor did it activate binding; also recorded: pharmacologically inactive
α2c adrenoreceptor [3]; listed as PE glucuronide b2
  stimulation of [35S]-GTPγS binding, α2c (in words): No stimulatory activity
α2c adrenoreceptor [4]
  inhibition of [3H]-UK14304 binding, α2c (in words): weakly inhibits binding; also recorded: pharmacologically inactive
α2c adrenoreceptor [4]; listed as PE glucuronide b4
  inhibition of [3H]-UK14304 binding, α2c (in words): A small amount of binding
α2c adrenoreceptor [4]; [6]
  inhibition of [3H]-UK14304 binding, α2c (in words): minimal activity
[5]
  metabolite excreted in the urine: 12 % of dose

## O=C(O)C(O)c1cccc(O)c1 (stereo not drawn) [3-hydroxymandelic acid]
α1b adrenoreceptor [1]; [7]
  agonist activity, α1b calcium assay (in words): no activity
α1b adrenoreceptor [1]
  increase in intracellular calcium, α1b calcium assay (in words): not active
α1b adrenoreceptor [1]; α1b-expressing CHO cells, read-out: EC50, a1b Calcium (class symbol)
  EC50: > 10 µM
α1b adrenoreceptor [2]; [3H]-prazosin, read-out: Ki, a1b Binding (class symbol)
  Ki: > 100 µM
α1b adrenoreceptor [2]; concentrations up to 100 μM
  binding / affinity, α1b receptor (in words): No appreciable binding; also recorded: no affinity
α2b adrenoreceptor
  stimulation of [35S]-GTPγS binding, α2b (in words): no activity
α2b adrenoreceptor; [7]
  agonist activity, α2b [35S]-GTPγS assay (in words): no activity
α2b adrenoreceptor; read-out: EC50, a2b GTPγS (class symbol)
  EC50: > 10 µM
α2c adrenoreceptor [3]
  stimulation of [35S]-GTPγS binding, α2c (in words): no activity
α2c adrenoreceptor [3]; [7]
  agonist activity, α2c [35S]-GTPγS assay (in words): no activity
α2c adrenoreceptor [3]; read-out: EC50, a2c GTPγS (class symbol)
  EC50: > 10 µM
α2c adrenoreceptor [4]
  inhibition of [3H]-UK14304 binding, α2c (in words): but not; also recorded: no significant binding
α2c adrenoreceptor [4]; [3H]-UK14304, read-out: Ki, a2c Binding (class symbol)
  Ki: > 100 µM
α2c adrenoreceptor [4]; at 100 μM (highest concentration evaluated)
  binding / affinity, α2c receptor (in words): no affinity
[5]
  metabolite excreted in the urine: 30 % of dose
